Assay results published in ChEMBL document CHEMBL5247586, “Discovery of fusidic acid derivatives as novel STING inhibitors for treatment of sepsis” (Eur J Med Chem, 2022).
Activity calls are given as the source filed them. The rule behind the calls is not given here.

Columns and labels:
Mus musculus [1] = assay: (§1) Protective activity against LPS induced sepsis in BALB/c mouse model of acute liver injury assessed as reduction in AST level in serum at 1.25 to 5 mg/kg, IG administered once a day for 3 days followed by LPS stimulation for 12 hrs starting from 2 hrs post last dose by ELISA; format: functional, organism-based; conditions: dose 1.25-5 mg/kg, time 86.0 hrs
Mus musculus [2] = assay: as §1, with “necrotic hepatocytes” for “AST level in serum”, “hematoxylin and eosin staining based analysis” for “ELISA”; format: functional, organism-based; conditions: dose 1.25-5 mg/kg, time 86.0 hrs
[3] = target: T1, Serine/threonine-protein kinase TBK1 (Mus musculus) (UniProt Q9WUN2); assay: Inhibition of TBK1 phosphorylation in LPS-induced mouse RAW264.7 cells preincubated with compound for 2 hrs followed by LPS stimulation and measured after 6 hrs by Western blot analysis; format: cell-based; conditions: dose 0.5-2 µM, time 8.0 hrs
T1 sequence (whole entry): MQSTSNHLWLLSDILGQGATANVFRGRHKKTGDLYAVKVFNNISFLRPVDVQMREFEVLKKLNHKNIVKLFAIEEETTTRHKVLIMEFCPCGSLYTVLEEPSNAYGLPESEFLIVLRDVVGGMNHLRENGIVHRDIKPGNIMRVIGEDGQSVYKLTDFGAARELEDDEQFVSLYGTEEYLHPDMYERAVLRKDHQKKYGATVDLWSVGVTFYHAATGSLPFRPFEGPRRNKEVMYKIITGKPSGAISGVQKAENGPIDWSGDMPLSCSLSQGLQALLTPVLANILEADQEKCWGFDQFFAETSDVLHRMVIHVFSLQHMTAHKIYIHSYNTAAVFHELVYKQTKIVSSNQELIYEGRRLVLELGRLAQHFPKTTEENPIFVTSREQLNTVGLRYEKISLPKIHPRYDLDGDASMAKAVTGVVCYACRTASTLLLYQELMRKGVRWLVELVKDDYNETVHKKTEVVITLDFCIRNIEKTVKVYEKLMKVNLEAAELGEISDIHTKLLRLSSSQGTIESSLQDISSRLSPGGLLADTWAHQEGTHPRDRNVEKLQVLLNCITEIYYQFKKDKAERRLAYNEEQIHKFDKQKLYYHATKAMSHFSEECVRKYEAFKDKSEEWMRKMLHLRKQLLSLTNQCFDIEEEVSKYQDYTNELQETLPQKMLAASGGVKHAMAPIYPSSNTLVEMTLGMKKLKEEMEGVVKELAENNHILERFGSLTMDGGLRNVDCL

RAW264.7 [4] = assay: Anti inflammatory activity in LPS-induced mouse RAW264.7 cells assessed as inhibition of NO production at 2.5 uM preincubated with compound for 2 hrs followed by LPS stimulation and measured after 24 hrs by griess reagent based assay relative to control; format: functional; conditions: time 26 hrs
RAW264.7 [5] = assay: Anti inflammatory activity in LPS-induced mouse RAW264.7 cells assessed as suppression of TNF-alpha levels at 0.5 to 2 uM preincubated with compound for 2 hrs followed by LPS stimulation for 6 hrs by ELISA method; format: functional, cell-based; conditions: dose 0.5-2 µM, time 8.0 hrs
[6] = target: T2, Stimulator of interferon genes protein (Mus musculus) (UniProt Q3TBT3); assay: (§2) In vivo inhibition of STING in BALB/c mouse model of LPS induced sepsis assessed as inhibition of upregulation of phosphorylated IRF3 protein expression at 1.25 to 5 mg/kg, IG administered once a day for 3 days followed by LPS stimulation for 12 hrs starting from 2 hrs post last dose by Western blot analysis; format: functional, organism-based; conditions: dose 1.25-5 mg/kg, time 86.0 hrs
T2 sequence (whole entry): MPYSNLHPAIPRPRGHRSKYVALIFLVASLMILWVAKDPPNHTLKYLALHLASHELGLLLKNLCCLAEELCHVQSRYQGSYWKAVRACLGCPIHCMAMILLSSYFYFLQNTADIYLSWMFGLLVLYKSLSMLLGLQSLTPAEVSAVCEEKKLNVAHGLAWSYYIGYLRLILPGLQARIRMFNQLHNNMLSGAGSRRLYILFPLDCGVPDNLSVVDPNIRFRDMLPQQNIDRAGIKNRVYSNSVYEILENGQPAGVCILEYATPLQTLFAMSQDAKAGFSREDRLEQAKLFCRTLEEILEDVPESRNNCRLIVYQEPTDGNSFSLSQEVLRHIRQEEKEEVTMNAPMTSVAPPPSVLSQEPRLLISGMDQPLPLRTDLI

Mus musculus [7] = assay: Anti-sepsis activity against BALB/c mouse model of LPS induced sepsis assessed as reduction in STING mRNA expression in liver at 1.25 to 5 mg/kg, IG administered once a day for 3 days followed by LPS stimulation for 12 hrs starting from 2 hrs post last dose by qRT-PCR analysis; format: functional, organism-based; conditions: dose 1.25-5 mg/kg, time 86.0 hrs
[8] = Half life in Sprague-Dawley rat administered intragastrically; format: ADME; conditions: in vivo, po, route ig
Mus musculus [9] = assay: Antiinflammatory activity in BALB/c mouse model of LPS induced sepsis assessed as inhibition of IL-6 production at 1.25 to 5 mg/kg, IG administered once a day for 3 days followed by LPS stimulation for 12 hrs starting from 2 hrs post last dose by qRT-PCR analysis; format: functional, organism-based; conditions: dose 1.25-5 mg/kg, time 86.0 hrs
[10] = MRT (0 to t) in Sprague-Dawley rat administered intragastrically; format: ADME; conditions: in vivo, po, route ig
[11] = target: T2, Stimulator of interferon genes protein (Mus musculus); assay: Binding affinity to STING in mouse RAW264.7 cells assessed as thermal stabilization at 46 degree C measured for 8 hrs by cellular thermal shift assay; format: cell-based; conditions: dose 0-20 µM
Mus musculus [12] = assay: as §1, with “improvement” for “reduction”, “congested hepatic sinusoids” for “AST level in serum”, “hematoxylin and eosin staining based analysis” for “ELISA”; format: functional, organism-based; conditions: dose 1.25-5 mg/kg, time 86.0 hrs
[13] = target: T2, Stimulator of interferon genes protein (Mus musculus); assay: Binding affinity to STING in mouse RAW264.7 cells assessed as thermal stabilization at 40 to 61 degree C at 20 uM incubated for 8 hrs by cellular thermal shift assay; format: cell-based
[14] = target: Transcription factor p65 (Mus musculus) (UniProt Q04207); assay: Inhibition of p65 phosphorylation in LPS-induced mouse RAW264.7 cells preincubated with compound for 2 hrs followed by LPS stimulation and measured after 6 hrs by Western blot analysis; format: cell-based; conditions: dose 0.5-2 µM, time 8.0 hrs
RAW264.7 [15] = assay: Anti inflammatory activity in LPS-induced mouse RAW264.7 cells assessed as inhibition of NO production preincubated with compound for 2 hrs followed by LPS stimulation and measured after 24 hrs by griess reagent based assay; format: functional, cell-based
RAW264.7 [16] = assay: Inhibition of STING protein expression in LPS-induced mouse RAW264.7 cells preincubated with compound for 2 hrs followed by LPS stimulation and measured after 6 hrs by Western blot analysis; format: functional, cell-based; conditions: dose 0.5-2 µM, time 8.0 hrs
Mus musculus [17] = assay: as §1, with “improvement” for “reduction”, “blurred boundaries” for “AST level”, “liver tissue” for “serum”, “hematoxylin and eosin staining based analysis” for “ELISA”; format: functional, organism-based; conditions: dose 1.25-5 mg/kg, time 86.0 hrs
[18] = target: T2, Stimulator of interferon genes protein (Mus musculus); assay: as §2, with “p65” for “IRF3”; format: functional, organism-based; conditions: dose 1.25-5 mg/kg, time 86.0 hrs
[19] = AUC(0 to infinity) in Sprague-Dawley rat administered intragastrically; format: ADME; design: route ig; conditions: in vivo, po
RAW264.7 [20] = assay: Anti inflammatory activity in LPS-induced mouse RAW264.7 cells assessed as suppression of IL-6 levels at 0.5 to 2 uM preincubated with compound for 2 hrs followed by LPS stimulation for 6 hrs by ELISA method; format: functional, cell-based; conditions: dose 0.5-2 µM, time 8.0 hrs
Mus musculus [21] = assay: as §1, with “improvement of disorderly arranged liver tissue” for “reduction in AST level in serum”, “hematoxylin and eosin staining based analysis” for “ELISA”; format: functional, organism-based; conditions: dose 1.25-5 mg/kg, time 86.0 hrs

Sequence of Transcription factor p65 (Mus musculus) (Q04207 whole entry): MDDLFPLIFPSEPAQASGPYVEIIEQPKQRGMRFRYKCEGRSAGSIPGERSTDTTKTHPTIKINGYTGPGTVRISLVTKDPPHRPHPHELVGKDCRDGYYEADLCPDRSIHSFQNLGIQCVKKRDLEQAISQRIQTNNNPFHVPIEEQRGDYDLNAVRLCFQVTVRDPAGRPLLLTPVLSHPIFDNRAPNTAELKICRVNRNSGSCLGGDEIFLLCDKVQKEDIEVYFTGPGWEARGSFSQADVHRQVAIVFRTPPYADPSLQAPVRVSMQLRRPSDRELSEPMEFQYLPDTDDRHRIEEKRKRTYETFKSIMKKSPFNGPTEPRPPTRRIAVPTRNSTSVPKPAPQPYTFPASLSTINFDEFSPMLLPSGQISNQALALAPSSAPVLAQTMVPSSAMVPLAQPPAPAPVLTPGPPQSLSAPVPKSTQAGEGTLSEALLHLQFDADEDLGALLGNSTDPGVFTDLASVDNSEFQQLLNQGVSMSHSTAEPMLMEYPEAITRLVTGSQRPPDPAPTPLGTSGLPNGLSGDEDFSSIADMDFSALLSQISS

inhibition [3]: Dose-Dependent Effect
inhibition [6]: Active
half-life [8]: 1.11 h
MRT last [10]: 0.99 h
Activity [11]: Dose-Dependent Effect
Activity [13]: Active
inhibition [14]: Dose-Dependent Effect
IC50 (RAW264.7 [15]): 1150 nM
inhibition [18]: Active
AUC(0-inf) [19]: 136 ng·h/mL
Structure (SMILES): C=CCONC(=O)CCSSCCC(=O)O[C@@H]1CC[C@@]2(C)[C@@H](CC[C@@]3(C)[C@H]2[C@H](O)C[C@H]2/C(=C(\CCC=C(C)C)C(=O)OCc4ccccc4)[C@@H](OC(C)=O)C[C@@]23C)[C@@H]1C
Activity (Mus musculus [1]): Active
Activity (Mus musculus [2]): Active
inhibition at 2.5 µM (RAW264.7 [4]): 69.3%
Activity (RAW264.7 [5]): Active
Activity (Mus musculus [7]): Active
inhibition (Mus musculus [9]): Active
Activity (Mus musculus [12]): Active
inhibition (RAW264.7 [16]): Dose-Dependent Effect
Activity (Mus musculus [17]): Active
Activity (RAW264.7 [20]): Active
Activity (Mus musculus [21]): Active
